The source of these data is patent US5776946A, “Peripheral benzodiazepine receptor ligands as antiinflammatory agents” (priority 1995, dated 1998).

Each structure is given as a SMILES string. “And” between values parts separate entries of the source, which are not always exact repeats. Equal entries are not always repeated. Where two headings read alike, the source gives them in different places. Bounds are passed on as bounds.

For assay [1], the target named is T1, peripheral benzodiazepine receptors in brain (Homo sapiens, UniProt P30536).
T1 construct: host or cells: brain (Doble et al., 1987)
T1 sequence (P30536 whole entry): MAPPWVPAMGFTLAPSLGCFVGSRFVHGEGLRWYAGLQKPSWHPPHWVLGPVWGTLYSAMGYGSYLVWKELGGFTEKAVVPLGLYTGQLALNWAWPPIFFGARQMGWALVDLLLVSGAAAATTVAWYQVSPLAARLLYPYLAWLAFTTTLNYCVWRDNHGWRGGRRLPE
The settings on record: read-out: ability to displace bound PK 11195 from peripheral benzodiazepine receptors (Ki); cited from earlier work.

In assay [2] the test system is cultured rat peritoneal macrophages. In words: Respiratory burst in cultured rat peritoneal macrophages activated by opsonized zymosan. It is filed as cell-based. The settings on record: Peritoneal macrophage; for activity at 1000 µM: 10^-3 M. An excerpt: Its main function is to protect the body from hostile invaders by generating superoxide radicals, but inappropriate activation can damage host tissue. Oxidative stress is believed to be one of the more harmful concomitants of inflammation. The respiratory burst system can be activated in cultured peritoneal macrophages in multiple ways, including exposure to zymosan particles opsonized by complement proteins (Klegeris and McGeer, 1994).
For methods see Klegeris and McGeer, 1994.

The subject of the next assay is MRL-lpr mice. As to the kind of experiment: CFA-induced disease in MRL-lpr mice, joint histopathology. The assay is classed as in vivo, mouse. The settings on record: for Severity of Disease Sign Total / Severity of Disease Sign (1) subsynovial inflammation / Severity of Disease Sign (2) synovial hyperplasia / Severity of Disease Sign (3) pannus formation / Severity of Disease Sign (4) bone destruction: day 30, mean ± S.D.; for Severity of Disease Sign (1) subsynovial inflammation / Severity of Disease Sign (2) synovial hyperplasia / Severity of Disease Sign (3) pannus formation / Severity of Disease Sign (4) bone destruction: scale 0-4. An excerpt:
MRL-lpr mice are a widely studied strain which spontaneously develop a particularly severe autoimmune disorder. Pathologies that are found in a variety of human idiopathic inflammatory and autoimmune diseases are reproduced in these animals. They are therefore considered to be an outstanding model for such individual human diseases, although the pathology represents a combination of several of them. They are regarded as the best animal model for rheumatoid arthritis (Koopman and Gay, 1988) , systemic lupus erythematous (Bartlett et al., 1988)., and Sjogren's syndrome (Hayashi et al., 1994). […] They develop behavioral and neurological deficits (Sakic et al., 1993), as well as evidence of CNS inflammation (Vogelweid et al., 1991) which is seen in isolation in such diseases as Alzheimer type dementia and multiple sclerosis, but is also part of the syndrome in systemic lupus erythematosus and Sjogren's syndrome. The model is considered to be a particularly demanding one for screening antiinflammatory agents because of the severity and comprehensiveness of the disease pathology. […] The lesions include synovial inflammation, synovial cell proliferation, pannus formation, and articular cartilage erosion and bone destruction. Only powerful antiinflammatory agents will inhibit the devastating changes that accompany this genetic disorder. Mice of the MRL-lpr strain spontaneously develop a mild form of the disease at several months of age. The onset can be accelerated by injection of complete Freund's adjuvant (CFA) supplemented to 10 mg/ml with heat-inactivated M. tuberculosis, at 13-14 weeks of age, with 67-82% of animals becoming affected within 1 month (Ratkay et al., 1994; Ratkay et al., 1993).
Daily injections were continued until day 14. The animals were sacrificed at day 30 and joint histopathology assessed. […] The results were compared with those in littermates receiving CFA only (N=7). Following sacrifice, animals were evaluated for subsynovial inflammation, synovial hyperplasia, cartilage destruction and pannus formation, and bone destruction.
^A The histopathological changes were assessed on a scale of 0 (no
change) to 4 (severe change) for the following indices: (1) subsynovial
inflammation; (2) synovial hyperplasia; (3) pannus formation; and (4) bon
destruction. For methods see Ratkay et al., 1994.

Assay [3] concerns the target T2, peripheral benzodiazepine receptors, human Alzheimer and control cortical tissue (Homo sapiens, UniProt P30536).
T2 construct: from tissue; host or cells: human cortical brain tissue, Alzheimer and neurologically normal control
As to the kind of experiment: Specific high affinity binding of PK 11195 to Alzheimer and control cortical tissue. The settings on record: PK 11195 at 3 nM. An excerpt:
The standard method of Schoemaker et al., 1983 was employed.

The target in assay [4] is T3, peripheral benzodiazepine receptors, mouse peritoneal macrophages (Mus musculus, UniProt P50637).
T3 construct: host or cells: mouse peritoneal macrophages (Zavala and Lenfant, 1987b)
T3 sequence (P50637 whole entry): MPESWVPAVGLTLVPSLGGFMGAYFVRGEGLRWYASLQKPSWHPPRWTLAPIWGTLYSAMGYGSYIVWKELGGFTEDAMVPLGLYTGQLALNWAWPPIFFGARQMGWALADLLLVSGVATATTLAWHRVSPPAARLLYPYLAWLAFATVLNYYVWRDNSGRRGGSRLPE
The settings on record: read-out: affinity; cited from earlier work.

Assay [5] concerns the target T2, peripheral benzodiazepine receptors, human Alzheimer and control cortical tissue. The settings on record: McGeer et al., 1988; cited from earlier work.
Where [6] appears, read: after opsonized zymosan, read-out: Respiratory burst, Percent of Control (± S.E.), substance given After OZ.
[7] abbreviates: before opsonized zymosan, read-out: Respiratory burst, Percent of Control (± S.E.), substance given Before OZ.
The mark [8] stands for this setting: 10^-4 M, after opsonized zymosan, read-out: Respiratory burst, Percent of Control (± S.E.), substance given After OZ.
Where [9] appears, read: 10^-4 M, before opsonized zymosan, read-out: Respiratory burst, Percent of Control (± S.E.), substance given Before OZ.
The mark [10] stands for this setting: 10^-5 M, before opsonized zymosan, read-out: Respiratory burst, Percent of Control (± S.E.), substance given Before OZ.
The mark [11] stands for this setting: read-out: Respiratory burst, Percent of Control (± S.E.), substance given After OZ.
Where [12] appears, read: read-out: Respiratory burst, Percent of Control (± S.E.), substance given Before OZ.

T2 sequence (P30536 whole entry): as the sequence (P30536 whole entry) above

Broadly, the Ki is the dissociation constant of the complex between target and ligand, obtained from inhibition or displacement. For the molecule `CCN(CC)C(=O)C(C)Cc1cc(-c2ccccc2)nc2ccccc12` (single isomer, unassigned) [PK-14067, 1-N,N-diethyl-a-methyl-2-phenylquinoline-4-propranamide], the Ki in assay [1] was 44 nM.

As for `COc1ccc2c(c1)c(CC(=O)O)c(C)n2C(=O)c1ccc(Cl)cc1` [Indomethacin, indomethacin], the activity at 1000 µM came out at 64.8 ± 9.4% in assay [2] (setting [6]) and 36 ± 12.5% in assay [2] (setting [7]). For the same molecule, the activity at 100 µM in assay [2] (setting [8]) amounted to 101 ± 2.1%; in assay [2] (setting [9]), 86.3 ± 10.9%. For the same molecule, in assay [2] (setting [10]), the activity at 10 µM came to 101 ± 3.5%.

A word on the inhibition: it is the drop in the measured response relative to a control, in per cent. On to `CCC(C)N(C)C(=O)c1cc2ccccc2c(-c2ccccc2Cl)n1` (stereo not drawn) [PK 11195, 1-(2-chlorophenyl)-N-methyl-N-(1-methylpropyl)-3-isoquinolinecarboxamide], for which, in the assay with MRL-lpr mice (0.1 mg/kg s.c. daily to day 14), the “Severity of Disease Sign Total” value worked out at 1.40 ± 0.48, the “Severity of Disease Sign (1) subsynovial inflammation” value is reported as 0.70 ± 0.26, the “Severity of Disease Sign (2) synovial hyperplasia” value is 0.70 ± 0.26 and the “Severity of Disease Sign (3) pannus formation” value (from here on “Severity … (3) pannus formation”) stood at 0.00 ± 0.00. Further, the “Severity of Disease Sign (4) bone destruction” value (“Severity … (4) bone destruction” below) with MRL-lpr mice (0.1 mg/kg s.c. daily to day 14) came to 0.00 ± 0.00. Further, in the assay with MRL-lpr mice (0.5 mg/kg s.c. daily to day 14), the “Severity of Disease Sign Total” value is reported as 1.25 ± 0.53, the “Severity of Disease Sign (1) subsynovial inflammation” value was 0.62 ± 0.26, the “Severity of Disease Sign (2) synovial hyperplasia” value worked out at 0.50 ± 0.27 and the “Severity … (3) pannus formation” value came out at 0.00 ± 0.00. Also, in the assay with MRL-lpr mice (0.5 mg/kg s.c. daily to day 14), the “Severity … (4) bone destruction” value stood at 0.12 ± 0.12. For the same molecule, in the assay with MRL-lpr mice (1 mg/kg s.c. daily to day 14), the “Severity of Disease Sign Total” value is on record as 1.14 ± 0.14, the “Severity of Disease Sign (1) subsynovial inflammation” value came to 0.43 ± 0.20, the “Severity of Disease Sign (2) synovial hyperplasia” value was determined as 0.71 ± 0.18 and the “Severity … (3) pannus formation” value stood at 0.00 ± 0.00. Moreover, the “Severity … (4) bone destruction” value in the assay on MRL-lpr mice (1 mg/kg s.c. daily to day 14) stood at 0.00 ± 0.00. The “reduction of the total histopathological score observed in control mice” value with MRL-lpr mice (even at the lowest dose of 0.1 mg/kg) is listed as “more than 70%”. In addition, in the assay with MRL-lpr mice (lowest dose 0.1 mg/kg), the “efficacy compared with results of Ratkay et al., 1994” value is “more effective than ten times that dose of indomethacin, forty times that dose of cyclosporin”. In addition, in assay [2] (setting [11]), the activity at 1 µM amounted to 97.9 ± 0.2%, the activity at 10 µM was determined as 83.5 ± 8.7% and the activity at 100 µM is 47.1 ± 13.6%. In addition, in assay [2] (setting [12]), the activity at 1 µM was found to be 99 ± 5.6%, the activity at 10 µM is 87.9 ± 5.5% and the activity at 100 µM amounted to 48.9 ± 10.8%. For the same molecule, the inhibition at 100 µM in assay [2] (read-out: inhibition of respiratory burst) was above 50%. In assay [3] (Alzheimer), the “Specific High Affinity Binding, Alzheimer cortical tissue, Means ± S.E.” value turned out to be 449 ± 25 fentamoles/mg protein; the “Specific High Affinity Binding, Alzheimer cortical tissue, individual cases” value is 480 fentamoles/mg protein and 585 fentamoles/mg protein and 400 fentamoles/mg protein and 450 fentamoles/mg protein and 395 fentamoles/mg protein and 408 fentamoles/mg protein and 422 fentamoles/mg protein. In assay [3] (Control), the “Specific High Affinity Binding, Control cortical tissue, Means ± S.E.” value is 165 ± 25 fentamoles/mg protein; the “Specific High Affinity Binding, Control cortical tissue, individual cases” value was 201 fentamoles/mg protein and 94 fentamoles/mg protein and 265 fentamoles/mg protein and 118 fentamoles/mg protein and 141 fentamoles/mg protein and 111 fentamoles/mg protein and 222 fentamoles/mg protein. Besides, the Kd in assay [4] was 5.6 nM.

`CN1C(=O)CN=C(c2ccc(Cl)cc2)c2cc(Cl)ccc21` [Ro 5-4864, 4'-chlorodiazepam]: in assay [2] (setting [12]), the activity at 1 µM was found to be 94.6 ± 12.2%, the activity at 10 µM turned out to be 85.4 ± 2.5% and the activity at 100 µM came out at 74.7 ± 1.9%. For the same molecule, in assay [1], the Ki was 178 nM. Besides, the “high affinity binding to Alzheimer versus neurologically normal brain tissue” value in assay [5] is on record as “greater high affinity binding to Alzheimer brain tissue than to neurologically normal brain tissue”.

For `C[C@]12C=CC(=O)C=C1CC[C@@H]1[C@@H]2C(=O)C[C@@]2(C)[C@H]1CC[C@]2(O)C(=O)CO` [Prednisone, prednisone], the figures for the activity at 1000 µM in assay [2] (setting [6]) and in assay [2] (setting [7]) were 67 ± 11.6% and 62.5 ± 8.1%, respectively. Further, the activity at 100 µM in assay [2] (setting [8]) turned out to be 102 ± 4.9%; in assay [2] (setting [9]), 88.8 ± 7.2%.

Regarding `Nc1ccc(S(=O)(=O)c2ccc(N)cc2)cc1` [Dapsone, dapsone], the values for the activity at 100 µM in assay [2] (setting [8]) and in assay [2] (setting [9]) were 90.3 ± 6.2% and 73.6 ± 4.6%, respectively. The activity at 10 µM was found to be 96.4 ± 1.6% in assay [2] (10^-5 M, after opsonized zymosan, read-out: Respiratory burst, Percent of Control (± S.E.), substance given After OZ) and 94.7 ± 1.3% in assay [2] (setting [10]).
